Test results from patent publication US20100021480A1, “BIOACTIVE SUBSTANCE-BLOOD PROTEIN CONJUGATE AND STABILIZATION OF A BIOACTIVE SUBSTANCE USING THE SAME” (priority 2005, published 2010).
Like-named read-outs stand apart in the source and are kept apart here.

How the values were obtained:
ICR female mice = assay: Blood glucose reducing activity through intraperitoneal glucose tolerance test (IPGTT); assay type: in vivo; settings: 10 nmol
Protocol: Long-acting of the blood glucose reducing effect was tested in this example to determine long-acting of the blood glucose reducing activity of Compound 35 of the present invention. As control samples for determining blood glucose reducing activity and long-acting of the activity, native Exendin-4 was used, and the activity of each peptide sample was measured by intraperitoneal glucose tolerance test (IPGTT).
ICR female mice (6 weeks old, DaehanBioLink, Korea) were employed as test animals, after being adapted in lab for 7 days. Before the test, 8 mice were picked out of each group and blood was collected from tail to measure the glucose concentration in blood using glucometer (Accucheck Sensor, Roche), and then, starved for 15 to 18 hours. […] At each determined time, blood was corrected from caudal vein and the level of glucose therein was measured with glucometer. The experiments for the determination of blood glucose reducing activity and the long-acting of the activity are summarized in Table 5.
The animal test results with respect to the long-acting of blood glucose reducing effect, when Compound 35 of the present invention, and […], were measured through IPGTT, and shown in FIGS. 1 and 2. […]

activated HSA = activated HSA (Homo sapiens, UniProt P02768)
Protocol: Such binding degree to albumin can be simply qualitatively or quantitatively measured by an in vitro analysis using a simple HPLC.
Human serum albumin (HSA, 1 mM) solution was prepared by dissolving 66.5 mg of the activated HSA prepared in Example 3 in PBS buffer solution (pH 7.2, 1 ml). Stock solutions (1 mM) of bioactive substance Compound 15 (1.8 mg/ml) and Leuprolide (1.2 mg/ml) were respectively prepared by the same method.
The stock solutions prepared in the above method were diluted with PBS buffer so that they had the compositions shown in Table 2 below thereby to prepare sample solutions (100 μl) for determination. Then, each reaction mixture was mixed and slowly shaken in an incubator for 30 min while the temperature condition of 37° C. was kept. After incubation, methanol (150 μl) was added to each sample vial, which was then voltexed for 10 min, to precipitate HSA. The precipitated albumin was spun down by centrifugation (12,000 rpm, 10° C., 10 min.) and the supernatants (50 μl) were taken and analyzed using HPLC under the same conditions.
The degree of conjugation was examined with increasing the concentration of the bioactive substance compounds at the fixed concentration of albumin.

activated HSA, sequence (P02768 25-609): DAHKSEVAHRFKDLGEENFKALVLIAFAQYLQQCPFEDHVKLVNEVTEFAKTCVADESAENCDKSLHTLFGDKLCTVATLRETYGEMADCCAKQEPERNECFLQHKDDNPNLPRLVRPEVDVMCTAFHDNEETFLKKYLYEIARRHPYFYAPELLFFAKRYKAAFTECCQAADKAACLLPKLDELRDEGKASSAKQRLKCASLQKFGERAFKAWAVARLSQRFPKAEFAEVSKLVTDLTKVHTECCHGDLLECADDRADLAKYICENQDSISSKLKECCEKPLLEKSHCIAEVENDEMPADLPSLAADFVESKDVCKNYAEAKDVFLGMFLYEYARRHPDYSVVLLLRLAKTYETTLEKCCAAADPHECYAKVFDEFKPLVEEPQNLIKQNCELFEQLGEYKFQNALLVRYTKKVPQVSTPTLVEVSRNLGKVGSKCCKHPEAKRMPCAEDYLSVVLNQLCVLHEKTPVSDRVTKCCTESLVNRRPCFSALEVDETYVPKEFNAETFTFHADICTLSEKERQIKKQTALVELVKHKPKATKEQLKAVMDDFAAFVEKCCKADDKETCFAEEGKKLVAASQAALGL

In the case of Exendin-4, the “blood glucose reducing curve in IPGTT versus saline control” value (ICR female mice; subcutaneous once 10 hours before intraperitoneal glucose (2 g/kg)) is reported as “no significant difference” and the “blood glucose reducing curve in IPGTT versus saline control” value (ICR female mice; subcutaneous once 24 hours before intraperitoneal glucose (2 g/kg)) is reported as “no significant difference”.
“Leuprolide-GSG-Lys-[ε-AEEA-CO—(CH2)2—SH]—NH2.2TFA [Compound 15]” was tested, and the “PA 20.6 min (peak area)” value (activated HSA; Compound 15/albumin 5/50 (μl of 1 mM stocks), PBS, 37° C., 30 min, supernatant HPLC) was 0, the “PA 20.6 min/4.4M” value (activated HSA; Compound 15/albumin 5/50, relative to Compound 15 only) was 0 and the “PA 20.6 min/4.4M” value (activated HSA; Compound 15/albumin 10/0, Compound 15 only) was 1.0. For the same substance, the “PA 20.6 min (peak area)” value (activated HSA; Compound 15/albumin 10/0, Compound 15 only, M: million) was 4.4M, the “PA 20.6 min (peak area)” value (activated HSA; Compound 15/albumin 10/50 (μl of 1 mM stocks), PBS, 37° C., 30 min, supernatant HPLC) was 0 and the “PA 20.6 min/4.4M” value (activated HSA; Compound 15/albumin 10/50, relative to Compound 15 only) was 0. The “PA 20.6 min (peak area)” value (activated HSA; Compound 15/albumin 20/50 (μl of 1 mM stocks), PBS, 37° C., 30 min, supernatant HPLC, M: million) was 1.3M, the “PA 20.6 min/4.4M” value (activated HSA; Compound 15/albumin 20/50, relative to Compound 15 only) was 0.3 and the “PA 20.6 min (peak area)” value (activated HSA; Compound 15/albumin 40/50 (μl of 1 mM stocks), PBS, 37° C., 30 min, supernatant HPLC, M: million) was 9.8M. For the same substance, the “PA 20.6 min/4.4M” value (activated HSA; Compound 15/albumin 40/50, relative to Compound 15 only) was 2.2, the “PA 20.6 min (peak area)” value (activated HSA; Compound 15/albumin 50/40 (μl of 1 mM stocks), PBS, 37° C., 30 min, supernatant HPLC, M: million) was 17.9M and the “PA 20.6 min/4.4M” value (activated HSA; Compound 15/albumin 50/40, relative to Compound 15 only) was 4.0. For the same substance, the “PA 20.6 min (peak area)” value (activated HSA; Compound 15/albumin 50/50 (μl of 1 mM stocks), PBS, 37° C., 30 min, supernatant HPLC, M: million) was 14.7M, the “PA 20.6 min/4.4M” value (activated HSA; Compound 15/albumin 50/50, relative to Compound 15 only) was 3.3 and the “binding of Compound 15 to albumin” value (activated HSA; binding test of albumin and Compound 15) was “bound”.
